Data from publication PMC5469522.

Assay: Non-covalent ring closure: intramolecular phenol OH...acceptor H-bond (folding of AD 2-mers; acceptor is phosphine oxide, pyridine or pyridine N-oxide). EMf = Kfold/K(A.D); Kfold inferred from NMR dilution Kobs(AD.AD) versus Kobs(AA.DD)
Details: the molecule shown is the open-chain precursor, toluene-d8 (C7-PO in CDCl3), 25.0 °C

CCCCP(=O)(CCCC)c1cccc(C#Cc2cc(C#Cc3cccc(O)c3)cc(OCC[C@@H](C)CCC=C(C)C)c2)c1 [C7-PO (44), CDCl3]
ring closure, effective molarity (17-membered ring): 0 mM

CCCCC(CC)COc1ccc(N(Cc2ccc(O)cc2)Cc2cc([N+](=O)[O-])ccc2OCC(CC)CCCC)cc1CN(Cc1ccncc1)c1ccc(OCC(CC)CCCC)c(C2OCCO2)c1 (stereo not shown) [C8-N (21)]
ring closure, effective molarity (18-membered ring): 0 mM

CCCCC(CC)COc1ccc(N(Cc2ccc(O)cc2)Cc2cc([N+](=O)[O-])ccc2OCC(CC)CCCC)cc1CN(Cc1cc[n+]([O-])cc1)c1ccc(OCC(CC)CCCC)c(C2OCCO2)c1 (stereo not shown) [C8-NO (13)]
ring closure, effective molarity (19-membered ring): 0 mM

CCCCC(CC)COc1ccc(N(Cc2ccc(O)cc2)Cc2cc([N+](=O)[O-])ccc2OCC(CC)CCCC)cc1CN(Cc1ccc(OCP(=O)(C(C)(C)C)C(C)(C)C)cc1)c1ccc(OCC(CC)CCCC)c(C2OCCO2)c1 (stereo not shown) [C8-PO (16)]
ring closure, effective molarity (22-membered ring): 7 mM

CCCCP(=O)(CCCC)c1ccc(C[C@@H](CCSCC[C@H](CCSC(C)=O)Cc2ccc(O)cc2)CCSC(C)(C)C)cc1 [C9-PO (33)]
ring closure, effective molarity (21-membered ring): 7 mM

CCCCC(CC)COc1cc(CN(Cc2ccccc2OC)c2ccc(O)cc2)cc(CN(Cc2ccccc2OC)c2ccc(OCP(=O)(C(C)(C)C)C(C)(C)C)cc2)c1 (stereo not shown) [N7-PO (29)]
ring closure, effective molarity (21-membered ring): 15 mM

CCCCC(CC)COc1cc(CN(Cc2ccccc2OC)c2ccc(OCP(=O)(C(C)(C)C)C(C)(C)C)cc2)c(OCC(CC)CCCC)cc1CN(Cc1ccccc1OC)c1ccc(O)cc1 (stereo not shown) [N8-PO (26)]
ring closure, effective molarity (22-membered ring): 3 mM
